Where two headings read alike, the source gives them in different places.
Target: human NaV 1.8 (Homo sapiens, UniProt Q9Y5Y9)
Assay: E-VIPR assay detecting and measuring NaV inhibition properties
Assay type: cell-based
Conditions: HEK cells expressing truncated human NaV 1.8
Summary of the method: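 Membrane potential was followed by coumarin/oxonol FRET during electrical field stimulation of matrigel-seeded HEK cells carrying truncated human NaV1.8 plus KIR2.1. Dosing used 11 points, 3-fold steps, top 300 nM final, 0.625% DMSO, with or without 25% human serum.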

[1] = no human serum, read-out: IC50 in the E-VIPR Assay

Sequence of human NaV 1.8 (Q9Y5Y9 126-399 limits assumed): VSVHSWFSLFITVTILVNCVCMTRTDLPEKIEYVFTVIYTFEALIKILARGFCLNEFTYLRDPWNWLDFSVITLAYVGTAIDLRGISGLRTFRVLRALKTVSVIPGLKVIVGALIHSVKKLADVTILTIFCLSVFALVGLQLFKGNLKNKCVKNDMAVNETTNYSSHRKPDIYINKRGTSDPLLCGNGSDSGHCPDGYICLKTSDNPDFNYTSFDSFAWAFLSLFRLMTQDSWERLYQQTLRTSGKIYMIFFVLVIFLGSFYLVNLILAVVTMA
Sequence of human NaV 1.8 (Q9Y5Y9 660-890 limits assumed): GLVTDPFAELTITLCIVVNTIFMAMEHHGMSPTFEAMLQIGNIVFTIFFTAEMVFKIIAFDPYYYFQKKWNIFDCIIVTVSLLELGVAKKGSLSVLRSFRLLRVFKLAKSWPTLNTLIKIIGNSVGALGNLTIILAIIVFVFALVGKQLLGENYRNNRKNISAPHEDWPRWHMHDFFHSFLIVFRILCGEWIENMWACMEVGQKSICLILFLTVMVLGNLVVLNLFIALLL
Sequence of human NaV 1.8 (Q9Y5Y9 1148-1722 limits assumed): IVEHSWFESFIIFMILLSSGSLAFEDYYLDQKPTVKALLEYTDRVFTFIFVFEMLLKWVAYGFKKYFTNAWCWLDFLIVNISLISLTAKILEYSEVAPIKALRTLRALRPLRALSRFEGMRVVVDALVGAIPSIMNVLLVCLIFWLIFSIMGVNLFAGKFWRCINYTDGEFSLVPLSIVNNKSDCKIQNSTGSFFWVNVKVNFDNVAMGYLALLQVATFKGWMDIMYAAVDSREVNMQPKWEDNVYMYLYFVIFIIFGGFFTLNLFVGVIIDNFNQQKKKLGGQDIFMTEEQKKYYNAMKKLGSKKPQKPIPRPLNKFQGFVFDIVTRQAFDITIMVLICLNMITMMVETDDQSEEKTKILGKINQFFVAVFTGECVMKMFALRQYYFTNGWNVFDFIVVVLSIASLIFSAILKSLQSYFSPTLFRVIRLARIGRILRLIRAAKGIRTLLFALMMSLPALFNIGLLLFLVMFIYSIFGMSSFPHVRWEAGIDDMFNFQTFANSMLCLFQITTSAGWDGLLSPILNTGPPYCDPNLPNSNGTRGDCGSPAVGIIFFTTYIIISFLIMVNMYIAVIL

IC50 [1] [nM]	IC50 (in the presence of human serum (compound numbers followed by *), read-out: IC50 in the E-VIPR Assay, performed in the presence of human serum) [nM]	Compound
< 10		[2H]C([2H])([2H])Oc1c([C@H]2[C@H](C(=O)Nc3ccnc(N4C(=O)CN(C)C[C@H]4C)c3)O[C@@](C)(C(F)(F)F)[C@H]2C)ccc(F)c1F [Compound 519, (2R,3S,4S,5R)-3-[3,4-difluoro-2-(trideuteriomethoxy)phenyl]-N-[2-[(2R)-2,4-dimethyl-6-oxo-piperazin-1-yl]-4-pyridyl]-4,5-dimethyl-5-(trifluoromethyl)tetrahydrofuran-2-carboxamide]
10 to 100		COc1c([C@H]2[C@H](C(=O)Nc3cncc(N4C(=O)CN(C)C[C@H]4C)c3)O[C@@](C)(C(F)(F)F)[C@H]2C)ccc(F)c1F [Compound 535, (2R,3S,4S,5R)-3-(3,4-difluoro-2-methoxyphenyl)-N-(5-((R)-2,4-dimethyl-6-oxopiperazin-1-yl)pyridin-3-yl)-4,5-dimethyl-5-(trifluoromethyl)tetrahydrofuran-2-carboxamide]
< 10		CC(C)Oc1c([C@H]2[C@H](C(=O)Nc3ccnc(S(C)(=N)=O)c3)O[C@@](C)(C(F)(F)F)[C@H]2C)ccc(F)c1F (single isomer, unassigned) [Compound 119]
< 10		COc1c([C@H]2[C@H](C(=O)Nc3ccnc(C(C)O)c3)O[C@@](C)(C(F)(F)F)[C@H]2C)ccc(F)c1F (single isomer, unassigned) [Compound 532]
< 10		COc1c([C@H]2[C@H](C(=O)Nc3cc(C(N)C(C)(C)O)ncc3F)O[C@@](C)(C(F)(F)F)[C@H]2C)ccc(F)c1F (single isomer, unassigned) [Compound 428, rel-(2R*,3S*,4S*,5R*)-N-(2-(1-amino-2-hydroxy-2-methylpropyl)-5-fluoropyridin-4-yl)-3-(3,4-difluoro-2-methoxyphenyl)-4,5-dimethyl-5-(trifluoromethyl)-tetrahydrofuran-2-carboxamide]
	≥ 1000	C[C@@H]1[C@H](c2ccc(F)c(F)c2OC(F)F)[C@@H](C(=O)Nc2ccnnc2)O[C@]1(C)C(F)(F)F (stereo in doubt) [Compound 63, rel-(2S,3R,4R,5S)-3-(2-(difluoromethoxy)-3,4-difluorophenyl)-4,5-dimethyl-N-(pyridazin-4-yl)-5-(trifluoromethyl)tetrahydrofuran-2-carboxamide]
10 to 100		Cc1nn(C(F)F)cc1NC(=O)[C@@H]1O[C@@](C)(C(F)(F)F)[C@@H](C)[C@H]1c1ccc(F)c(F)c1CN1CC2(COC2)C1 [Compound 670, (2R,3S,4S,5R)-3-(2-((2-oxa-6-azaspiro[3.3]heptan-6-yl)methyl)-3,4-difluorophenyl)-N-(1-(difluoromethyl)-3-methyl-1H-pyrazol-4-yl)-4,5-dimethyl-5-(trifluoromethyl)tetrahydrofuran-2-carboxamide]
100 to 1000		Cc1nocc1NC(=O)[C@@H]1O[C@@](C)(C(F)(F)F)[C@@H](C)[C@H]1c1ccc(F)c(F)c1OCCN1CC(C)(O)C1 [Compound 626, (2R,3S,4S,5R)-3-(3,4-difluoro-2-(2-(3-hydroxy-3-methylazetidin-1-yl)ethoxy)phenyl)-4,5-dimethyl-N-(3-methylisoxazol-4-yl)-5-(trifluoromethyl)tetrahydrofuran-2-carboxamide]
100 to 1000		COc1c([C@@H]2[C@H](C)[C@H](C)O[C@H]2C(=O)Nc2ccnc(C(O)CO)c2)ccc(F)c1F (relative stereo) [Compound 718, rel-(2R,3S,4S,5S)-3-(3,4-difluoro-2-methoxyphenyl)-N-(2-(1,2-dihydroxyethyl)pyridin-4-yl)-4,5-dimethyltetrahydrofuran-2-carboxamide]
10 to 100		COc1c([C@H]2[C@H](C(=O)Nc3ccc(-c4ncco4)nc3)O[C@@](C)(C(F)(F)F)[C@H]2C)ccc(F)c1F [Compound 399, (2R,3S,4S,5R)-3-(3,4-difluoro-2-methoxyphenyl)-4,5-dimethyl-N-(6-(oxazol-2-yl)pyridin-3-yl)-5-(trifluoromethyl)-tetrahydrofuran-2-carboxamide]
